Experimental data reported in patent publication US20130178472A1, “ARYLSULFONAMIDE PYRIDINE-PYRIDINONE DERIVATIVES, PREPARATION OF SAME, AND THERAPEUTIC USE THEREOF” (SANOFI, priority 2010, published 2013).
pIC50: −log10 of the molar value.

Experiments:
[1] = target: T1, fusion protein Tel/PDGF-R beta (BaF3 Tel/PDGF cells) (Homo sapiens, UniProt P09619); assay: Inhibition of PDGF beta receptor tyrosine kinase activity: proliferation of BaF3 Tel/PDGF cells; format: cell-based, murine; settings: 72 h incubation, viable cells by cellular ATP (CellTiter-Glo); read-out: IC50, concentration which inhibits 50% of the proliferation of the Baf3 tel/PDGF cells
T1 construct: the transmembrane and intracellular part of the PDGF-R beta receptor; N-terminal part of transcription factor Tel (ETV6, own knowledge: UniProt P41212), containing the oligomerization domain; expressed in transfected cells; host or cells: murine hematopoietic cell line BaF/3 (BaF3 Tel/PDGF); the other entry of the earlier key: ETV6 (P41212, Transcription factor ETV6)
From the text: (§1) The inhibitory activity on the PDGF receptor kinases is given by the concentration which inhibits 50% of the proliferation activity of Baf3 tel/PDGF cells respectively. The inhibitory activity on p70S6 kinase is given by the concentration which inhibits 50% of the phosphorylation of the peptide substrate derived from the S6 ribosomal protein (AKRRRLSSLRA, Upstate).
Measurement of the inhibition of the PDGF beta receptor (PDGF-Rβ) tyrosine kinase activity (Baf-3 tel/PDGFRβ):
This test consists in evaluating the effects of the compounds on the PDGF beta receptor tyrosine kinase activity.
The inhibitory effect of the compounds according to the invention toward the PDGF-R receptor tyrosine kinase activity was evaluated on the hematopoietic murine cell line BaF/3 transfected with a plasmid encoding the fusion protein Tel/PDGF-R beta. This fusion protein is found in chronic myelomonocytic myeloid leukemias (CMML). It comprises the N-terminal part of the transcription factor Tel and the transmembrane and intracellular part of the PDGF-R beta receptor. This fusion protein is present in dimerized form (presence of an oligomerization domain in the N-terminal part of Tel) and therefore leads to the constitutive activity of the PDGF-R beta kinase domain. This BaF3 Tel/PDGF line has been described in the literature several times and in particular in detail in the article by CARROLL, M. et al., PNAS, 1996, 93, 14845-14850, CARROLL, M. et al., Blood 2002, 99, 14845-14850.
The BaF3 Tel/PDGF cells are washed with phosphate buffer and inoculated in 96-well plates, at the density of 5×10^4 cells/ml ([…]), in RPMI 1640 containing 10% FCS, in the presence or absence of the compounds to be tested. After 72 h of incubation, the viable cells are quantified by measuring the cellular ATP using the kit CellTiter-Glo®(Promega, Cat G7571). The cells are treated according to the instructions given by the kit supplier and the luminescence is measured with the aid of a Luminoskan (Ascent, Labsystem) with the following parameters: measurement: single; integration time: 1000 ms, lag time: 5 s.
It is thus apparent that the compounds according to the invention have an inhibitory activity on the PDGF-R beta tyrosine kinase activity. This activity is given by the concentration which inhibits 50% of the proliferation of the Baf3 tel/PDGF cells (IC50).

[2] = target: T2, active mutant recombinant S6K1 (1-421, T412E) (Homo sapiens, UniProt P23443, T412E); assay: Inhibition of p70S6 kinase activity: phosphorylation of S6 peptide substrate, [γ-33]ATP filter assay; format: biochemical; settings: peptide AKRRRLSSLRA 50 μM, ATP 100 μM, 20 minutes at 30° C.; read-out: IC50, concentration which inhibits 50% of the phosphorylation of the peptide substrate derived from the S6 ribosomal protein
T2 construct: S6K1 (1-421, T412E); purchased Upstate USA, Inc. Charlottesville Va; 14-333
From the text: as §1
Measurement of the inhibition of the p70S6 kinase activity:
The active mutant recombinant S6K1 (1-421, T412E) (ref. 14-333, Upstate USA, Inc. Charlottesville Va.) (specific activity 298 U/mg) is incubated (20 mU/10 μl) with 8 concentrations of inhibitors solubilized at 1 mM in DMSO in the presence of the peptide substrate obtained from the S6 ribosomal protein (AKRRRLSSLRA, Upstate) (50 μM final) and of a cold ATP mixture (100 μM) and 1 μCi/well of [γ-33]ATP (NEN, Courtaboeuf, France). The enzyme reaction is carried out in a final volume of 50 μl in a 96-well filter plate (MultiScreen TM-PH opaque plate with Phospho-Cellulose cat # MAPHNOB, Millipore) previously soaked with 100 μl 1M Tris buffer pH 7.4 by adding the reagents of the S6 Kinase Assay kit (#17-136, Upstate) in the following order:
10 μl of 5% DMSO or various inhibitors at a 5× concentration
30 μl of reaction mixture containing the ADBI buffer (#20-108 Upstate, composed of 20 mM MOPS pH 7.2, 25 mM beta-glycerol phosphate, 5 mM EGTA, 1 mM sodium orthovanadate, 1 mM dithiothreitol), S6K1 (20 mU) and 250 μM peptide substrate [AKRRRLSSLRA] in ADBI buffer (#20-122, Upstate). The reaction is started by adding 10 μl of cold ATP/^33γATP mixture (1 μCi/50 μl as 500 μM ATP in ADBI buffer, 75 mM MgCl2) and then incubated for 20 minutes at 30° C. before being stopped by adding 20 μl of 7.5% phosphoric acid. The reaction mixture is filtered by aspiration under vacuum (Vacuum manifold, Millipore), the wells are rinsed twice with 200 μl of 7.5% phosphoric acid (2 minutes) and then twice with 200 μl of distilled H2O (2 minutes). After drying the plate, 25 μl/well of scintillant (Optiphase Super Mix, Wallac) are added and the radioactivity is detected with the Micro-Beta scintillation reader (Wallac). A negative control (all the reagents without peptide substrate) is prepared in order to determine the nonspecific binding of ^33γATP to the phosphocellulose filter which is subtracted from the experimental results.
It is thus apparent that the compounds of the invention have an inhibitory activity on the p70S6 kinase activity. This activity is given by the concentration which inhibits 50% of the phosphorylation of the peptide substrate derived from the S6 ribosomal protein (AKRRRLSSLRA, Upstate).

T1 sequence (P09619 with tags, fused parts or gaps): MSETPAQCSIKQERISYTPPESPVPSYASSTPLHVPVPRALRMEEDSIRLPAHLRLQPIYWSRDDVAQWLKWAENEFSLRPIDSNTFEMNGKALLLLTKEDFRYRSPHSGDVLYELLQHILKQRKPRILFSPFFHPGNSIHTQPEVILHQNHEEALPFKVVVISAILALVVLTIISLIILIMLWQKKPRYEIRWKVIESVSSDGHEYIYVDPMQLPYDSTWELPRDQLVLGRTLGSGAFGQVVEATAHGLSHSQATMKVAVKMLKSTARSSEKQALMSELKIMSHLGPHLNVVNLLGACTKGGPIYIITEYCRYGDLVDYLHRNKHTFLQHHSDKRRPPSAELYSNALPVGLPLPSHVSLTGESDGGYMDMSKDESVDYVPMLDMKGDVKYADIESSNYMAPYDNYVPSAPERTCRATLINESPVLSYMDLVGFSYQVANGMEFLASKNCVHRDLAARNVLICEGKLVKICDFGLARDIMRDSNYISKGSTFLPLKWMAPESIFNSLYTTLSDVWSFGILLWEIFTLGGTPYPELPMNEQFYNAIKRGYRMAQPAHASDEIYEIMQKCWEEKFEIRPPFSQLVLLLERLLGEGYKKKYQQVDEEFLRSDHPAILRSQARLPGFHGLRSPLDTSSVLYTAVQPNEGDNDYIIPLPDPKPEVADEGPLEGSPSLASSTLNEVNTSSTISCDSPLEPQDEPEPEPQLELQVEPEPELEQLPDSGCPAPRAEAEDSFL
T2 sequence (P23443 1-421 T412E): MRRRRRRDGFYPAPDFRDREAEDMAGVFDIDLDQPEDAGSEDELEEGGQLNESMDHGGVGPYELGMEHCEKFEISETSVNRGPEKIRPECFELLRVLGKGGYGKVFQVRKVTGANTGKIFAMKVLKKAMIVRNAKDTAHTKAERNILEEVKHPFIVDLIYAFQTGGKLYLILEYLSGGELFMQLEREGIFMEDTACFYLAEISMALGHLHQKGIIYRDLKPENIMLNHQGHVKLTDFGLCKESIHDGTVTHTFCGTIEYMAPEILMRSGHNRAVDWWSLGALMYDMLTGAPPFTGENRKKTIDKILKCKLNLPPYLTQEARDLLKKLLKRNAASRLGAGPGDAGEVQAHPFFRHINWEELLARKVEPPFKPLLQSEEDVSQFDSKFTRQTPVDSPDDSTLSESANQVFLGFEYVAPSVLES

Row | Compound | melting point [°C] | pIC50 [2] | pIC50 [1]
1 | CCn1c(N)c(C(=O)NC)c(=O)c2ccc(-c3ccc(NS(=O)(=O)c4cccc(Cl)c4Cl)c(Cl)c3)nc21 [compound No. 8, 2-amino-7-(3-chloro-4-{[(2,3-dichlorophenyl)sulfonyl]amino}phenyl)-1-ethyl-N-methyl-4-oxo-1,4-dihydro-1,8-naphthyridine-3-carboxamide] | 311 | 6.39 | 
2 | CCn1c(N)c(C(=O)NC)c(=O)c2ccc(-c3ccc(NS(=O)(=O)c4cc(Cl)ccc4Cl)c(F)c3)nc21 [compound No. 9, 2-amino-7-(4-{[(2,5-dichlorophenyl)sulfonyl]amino}-3-fluorophenyl)-1-ethyl-N-methyl-4-oxo-1,4-dihydro-1,8-naphthyridine-3-carboxamide] | 230 | 6.62 | 
3 | CCn1c(N)c(C(=O)NC)c(=O)c2ccc(-c3ccc(NS(=O)(=O)c4cccc(Cl)c4Cl)cc3F)nc21 [compound No. 14, 2-amino-7-(4-{[(2,3-dichlorophenyl)sulfonyl]amino}-2-fluorophenyl)-1-ethyl-N-methyl-4-oxo-1,4-dihydro-1,8-naphthyridine-3-carboxamide] | 340 | 6.65 | 
4 | CCn1c(N)c(C(=O)NC)c(=O)c2ccc(-c3ccc(NS(=O)(=O)c4cccc(Cl)c4Cl)c(F)c3)nc21 [compound No. 18, 2-amino-7-(4-{[(2,3-dichlorophenyl)sulfonyl]amino}-3-fluorophenyl)-1-ethyl-N-methyl-4-oxo-1,4-dihydro-1,8-naphthyridine-3-carboxamide] | 333 | 6.88 | 7.92

Continued, in another order:

Row | melting point [°C] | pIC50 [2] | Compound | pIC50 [1]
5 | 256 |  | CCn1c(N)c(C(=O)NC)c(=O)c2ccc(-c3ccc(NS(=O)(=O)c4cccc(F)c4)c(F)c3)nc21 [compound No. 2, 2-amino-1-ethyl-7-(3-fluoro-4-{[(3-fluorophenyl)sulfonyl]amino}phenyl)-N-methyl-4-oxo-1,4-dihydro-1,8-naphthyridine-3-carboxamide] | 7.44
6 | > 260 |  | CCn1c(N)c(C(=O)NC)c(=O)c2ccc(-c3ccc(NS(=O)(=O)c4ccccc4F)c(F)c3)nc21 [compound No. 20, 2-amino-1-ethyl-7-(3-fluoro-4-{[(2-fluorophenyl)sulfonyl]amino}phenyl)-N-methyl-4-oxo-1,4-dihydro-1,8-naphthyridine-3-carboxamide] | 6.55
7 | > 260 |  | CCn1c(N)c(C(=O)NC)c(=O)c2ccc(-c3ccc(NS(=O)(=O)c4ccc(F)cc4)c(F)c3)nc21 [compound No. 24, 2-amino-1-ethyl-7-(3-fluoro-4-{[(4-fluorophenyl)sulfonyl]amino}phenyl)-N-methyl-4-oxo-1,4-dihydro-1,8-naphthyridine-3-carboxamide] | 7.62
